Data reported in DBAASP.
In brackets after ≈: the same amount, converted by molar mass. Blank lines part the entries; values can stand above or below the compound they belong to.

What was measured:
Test in all cases: ≥ marks a high value that may be exact or a test limit, other limits are often not marked, values filed in µg/mL are converted to µM
[1] = system: Escherichia coli MC4100 NR698
[2] = system: Candida albicans ATCC 10231
[3] = system: Escherichia coli ATCC 25922
[4] = system: Staphylococcus epidermidis ATCC 35984
Cladosporium sp. = system: Cladosporium sp.
[5] = system: Pseudomonas aeruginosa ATCC 27853
[6] = system: Pseudomonas aeruginosa ATCC 15692
[7] = system: Staphylococcus aureus ATCC 9144
[8] = system: Bacillus subtilis ATCC 23857
[9] = system: Staphylococcus epidermidis 5179-R1
[10] = system: Corynebacterium glutamicum ATCC 13032
Aureobasidium pullulans = system: Aureobasidium pullulans
Saccharomyces cerevisiae = system: Saccharomyces cerevisiae
[11] = system: Nocardia asteroides 201118
Candida glabrata 090902 = system: Candida glabrata 090902
[12] = system: Enterobacter cloacae CGMCC 1.57
[13] = system: Staphylococcus aureus ATCC 25923
[14] = system: Klebsiella pneumoniae 08040724
[15] = system: Enterococcus faecium 091299
[16] = system: Enterococcus faecalis 981
[17] = system: Psychrobacter faecalis X29
[18] = system: Pseudomonas aeruginosa CGMCC 1.860
[19] = system: Pseudomonas aeruginosa 0108
[20] = system: Staphylococcus epidermidis
[21] = system: Staphylococcus aureus A170
Escherichia coli = system: Escherichia coli
Salmonella typhimurium = system: Salmonella typhimurium
Staphylococcus aureus = system: Staphylococcus aureus
Vibrio fluvialis = system: Vibrio fluvialis
Vibrio anguillarum = system: Vibrio anguillarum
Vibrio parahaemolyticus = system: Vibrio parahaemolyticus
Vibrio alginolyticus = system: Vibrio alginolyticus
[22] = system: Pectobacterium carotovorum
Pediococcus acidilactici = system: Pediococcus acidilactici
Escherichia coli D31 = system: Escherichia coli D31
Micrococcus luteus = system: Micrococcus luteus
Trichoderma viride = system: Trichoderma viride
Escherichia coli D22 = system: Escherichia coli D22
Neurospora crassa = system: Neurospora crassa
Klebsiella pneumoniae = system: Klebsiella pneumoniae
Bacillus subtilis = system: Bacillus subtilis
Alternaria brassicicola = system: Alternaria brassicicola
Fusarium culmorum = system: Fusarium culmorum
Botrytis cinerea = system: Botrytis cinerea
Aerococcus viridans = system: Aerococcus viridans
Enterobacter cloacae = system: Enterobacter cloacae
Fusarium haematococcum = system: Fusarium haematococcum
Bacillus megaterium = system: Bacillus megaterium
Ascochyta pisi = system: Ascochyta pisi

MIC [11]: 3.1 µM (≈ 7.73 µg/mL) | MIC [2]: 50 µM (≈ 125 µg/mL) | MIC (Candida glabrata 090902): 6.3 µM (≈ 15.7 µg/mL) | MIC [3]: 100 µM (≈ 249 µg/mL) | MIC [12]: ≥ 100 µM | MIC [13]: 6.3 µM (≈ 15.7 µg/mL) | MIC [14]: ≥ 100 µM | MIC [15]: ≥ 100 µM | MIC [16]: 3.1 µM (≈ 7.73 µg/mL) | MIC [17]: 25 µM (≈ 62.3 µg/mL)
SMILES: CC[C@H](C)[C@H](NC(=O)CNC(=O)[C@@H](NC(=O)[C@H](C)NC(=O)[C@H](C)NC(=O)[C@H](CCCCN)NC(=O)[C@@H](NC(=O)[C@H](CC(C)C)NC(=O)CNC(=O)[C@@H]1CCCN1C(=O)[C@H](CC(C)C)NC(=O)[C@@H](N)Cc1ccccc1)[C@@H](C)CC)C(C)C)C(=O)NCC(=O)N[C@@H](CO)C(=O)N[C@H](C(=O)N[C@H](C(=O)N[C@@H](Cc1ccccc1)C(=O)N[C@H]1CSSC[C@@H](C(=O)O)NC(=O)[C@H](CCCCN)NC(=O)[C@H](CCCCN)NC(=O)[C@H](CO)NC(=O)[C@H]([C@@H](C)CC)NC(=O)[C@H](CCCCN)NC1=O)[C@@H](C)CC)[C@@H](C)O [FLPGLIKAAVGIGSTIFCKISKKC]

MIC [22]: 28.3 µM (≈ 54.8 µg/mL) | MIC (Pediococcus acidilactici): 28.3 µM (≈ 54.8 µg/mL) | MIC (Escherichia coli D31): 0.849 µM (≈ 1.64 µg/mL) | MIC (Micrococcus luteus): 3.54 µM (≈ 6.85 µg/mL) | MIC (Trichoderma viride): 28.3 µM (≈ 54.8 µg/mL) | MIC (Escherichia coli D22): 0.849 µM (≈ 1.64 µg/mL) | MIC (Neurospora crassa): 14.1 µM (≈ 27.4 µg/mL) | MIC (Klebsiella pneumoniae): 3.54 µM (≈ 6.85 µg/mL) | MIC (Bacillus subtilis): 28.3 µM (≈ 54.8 µg/mL) | MIC (Alternaria brassicicola): 7.07 µM (≈ 13.7 µg/mL) | MIC (Fusarium culmorum): 14.1 µM (≈ 27.4 µg/mL) | MIC (Botrytis cinerea): 14.1 µM (≈ 27.4 µg/mL) | MIC (Aerococcus viridans): 1.73 µM (≈ 3.35 µg/mL) | MIC (Enterobacter cloacae): 7.07 µM (≈ 13.7 µg/mL) | MIC (Fusarium haematococcum): 7.07 µM (≈ 13.7 µg/mL) | MIC (Bacillus megaterium): 7.07 µM (≈ 13.7 µg/mL) | MIC (Ascochyta pisi): 28.3 µM (≈ 54.8 µg/mL)
SMILES: CC[C@H](C)[C@H](NC(=O)[C@@H](NC(=O)[C@@H]1CCCN1C(=O)[C@@H](N)C(C)C)[C@@H](C)CC)C(=O)N[C@@H](Cc1ccc(O)cc1)C(=O)N[C@H]1CSSC[C@@H](C(=O)N[C@@H](CCC(N)=O)C(=O)N[C@@H](CCCN=C(N)N)C(=O)N[C@@H](CCSC)C(=O)O)NC(=O)[C@H](CCCCN)NC(=O)CNC(=O)[C@H]([C@@H](C)O)NC(=O)[C@H](CCCN=C(N)N)NC(=O)[C@H](CCCN=C(N)N)NC(=O)[C@H](CC(N)=O)NC1=O [VPIIYCNRRTGKCQRM]

Further lines, the compound ahead of its results:

SMILES: CC[C@H](C)[C@H](NC(=O)[C@@H](N)CC(=O)O)C(=O)NCC(=O)N[C@@H](CCCCN)C(=O)N[C@@H](Cc1ccc(O)cc1)C(=O)N[C@@H](CS)C(=O)NCC(=O)N[C@@H](Cc1ccc(O)cc1)C(=O)N[C@@H](C)C(=O)N[C@@H](Cc1cnc[nH]1)C(=O)N[C@@H](C)C(=O)N[C@@H](CC(C)C)C(=O)N[C@@H](CC(N)=O)C(N)=O [DIGKYCGYAHALN]
MIC [1]: ≥ 100 µM | MIC [2]: > 100 µM | MIC [3]: > 100 µM | MIC [4]: ≥ 100 µM | MIC (Cladosporium sp.): ≥ 100 µM | MIC [5]: > 100 µM | MIC [6]: ≥ 100 µM | MIC [7]: ≥ 100 µM | MIC [8]: ≥ 100 µM | MIC [9]: ≥ 100 µM | MIC [10]: ≥ 100 µM | MIC (Aureobasidium pullulans): ≥ 100 µM | MIC (Saccharomyces cerevisiae): ≥ 100 µM

SMILES: CC[C@H](C)[C@H](N)C(=O)N[C@@H](CCCCN)C(=O)N[C@@H](CCCCN)C(=O)N[C@H](C(=O)N[C@@H](Cc1c[nH]c2ccccc12)C(=O)N[C@@H](CO)C(=O)N[C@@H](CCCCN)C(=O)N[C@H](C(=O)N[C@@H](CCCCN)C(=O)N[C@@H](CCCCN)C(=O)N[C@@H](CC(C)C)C(=O)N[C@@H](CC(C)C)C(=O)N[C@@H](CCCCN)C(N)=O)[C@@H](C)CC)[C@@H](C)CC [IKKIWSKIKKLLK]
MIC [18]: 6.25 µM (≈ 10.2 µg/mL) | MIC [19]: 12.5 µM (≈ 20.3 µg/mL)

SMILES: CC[C@H](C)[C@H](NC(=O)[C@@H]1CCCN1C(=O)[C@H](CC(C)C)NC(=O)[C@@H](N)CC(C)C)C(=O)N[C@H](C(=O)NCC(=O)N[C@@H](CC(N)=O)C(=O)N[C@@H](CC(C)C)C(=O)N[C@@H](CC(C)C)C(=O)N[C@@H](CCCCN)C(=O)N[C@@H](CO)C(=O)N[C@@H](CC(C)C)C(=O)N[C@@H](CC(C)C)C(=O)O)C(C)C [LLPIVGNLLKSLL]
MIC [20]: 21.5 µM (≈ 30 µg/mL) | MIC [21]: 17.9 µM (≈ 25 µg/mL) | MIC (Escherichia coli): > 71.8 µM | MIC (Salmonella typhimurium): ≥ 71.8 µM

SMILES: CSCC[C@H](NC(=O)[C@H](CO)NC(=O)[C@H](CC(C)C)NC(=O)[C@H](Cc1cnc[nH]1)NC(=O)[C@H](CO)NC(=O)[C@@H](N)CCC(N)=O)C(=O)N[C@H]1CSSC[C@@H](C(=O)N[C@@H](CCCCN)C(=O)N[C@@H](Cc2ccccc2)C(=O)O)NC(=O)[C@@H]2CSSC[C@@H]3NC(=O)[C@@H]4CSSC[C@H](NC(=O)[C@H](Cc5ccc(O)cc5)NC(=O)[C@H](CCCN=C(N)N)NC1=O)C(=O)N[C@@H](CSSC[C@H](NC(=O)CNC(=O)[C@H](CCCCN)NC(=O)[C@H](CC(N)=O)NC(=O)[C@H](CC(N)=O)NC(=O)[C@H](CCCN=C(N)N)NC3=O)C(=O)NCC(=O)N[C@@H](Cc1ccccc1)C(=O)N2)C(=O)N[C@@H](CC(N)=O)C(=O)N4 [QSHLSMCRYCCNCCRNNKGCGFCCKF]
MIC (Staphylococcus aureus): 50 µM (≈ 150 µg/mL) | MIC (Vibrio fluvialis): 25 µM (≈ 75 µg/mL) | MIC (Vibrio anguillarum): ≥ 50 µM | MIC (Vibrio parahaemolyticus): ≥ 50 µM | MIC (Escherichia coli): 50 µM (≈ 150 µg/mL) | MIC (Vibrio alginolyticus): ≥ 50 µM
